Values after ≈ are worked out from the molar mass of the structure shown. “Also recorded” adds a separate entry of the source. Marks after values point to notes of the source that are not given here.
How the values were obtained:
[1] = tested on: primary cultured rat cerebrocortical neurons; assay: Inhibition of xanthine/xanthine oxidase-induced neurotoxicity (LDH release); assay type: cell-based, Sprague-Dawley rat; details: for IC50: Cerebrocortical neuron, isolated compounds, rat cerebrocortical neurons, LDH
Procedure: (§1) Namely, the cerebral cortices of Sprague-Dawley rat embryos at 16-18 days of gestation were isolated, and meninges […] removed therefrom using a dissecting microscope. The tissue thus obtained was separated into single cells by trituration using a Pasteur pipette in a medium (MEM, Gibco BRL) containing 25 mM glucose, 5% FBS, 5% horse serum and 2 mM L-glutamine. […] A portion of the culture solution was replaced with a fresh culture media twice per week, and cultures were treated with 10 μM cytosine arabinoside for 24 to 72 hours at day 7 to 9 after planting to inhibit the growth of non-neuronal cells. The cultured cells at day 10 to 14 after planting were used in experiments. […] Data were calculated as percentages of the control LDH activity in the culture medium exposed to the respective oxidative insult in the absence of test principles. The inhibitory activity of a test sample for the oxidative nerve cell damage was calculated from the amount of released LDH relative to that of an unchanged control.

[2] = tested on: primary cultured rat cerebrocortical neurons; assay: Inhibition of hydrogen peroxide-induced neurotoxicity (LDH release); assay type: cell-based, Sprague-Dawley rat; details: for IC50: Cerebrocortical neuron
Procedure: as §1

[3] = DPPH radical scavenging activity (electron donating ability); details: for DPPH radical scavenging activity (IC50): isolated compounds
[4] = Superoxide anion radical scavenging activity (xanthine/xanthine oxidase, NBT); details: for Superoxide anion radical scavenging activity (IC50): isolated compounds
Procedure: Test sample solutions of various concentrations were each mixed with 0.1 mM xanthine, 0.1 mM EDTA, 50 μg/Ml bovine serum albumin (BSA), 25 mM nitroblue tetrazolium (NBT), 40 mM Na2CO3 and 7×10^−3 unit XOD to a final concentration of 200 μl and reacted at 25° C. for 20 min. 6.6 μl of 6 mM CuCl2 was added to the reaction mixture to stop the reaction, and the absorbance of the reaction mixture was measured at 560 nm to determine the amount of formazane.

[5] = tested on: cultured rat cerebral hippocampus cells and cortex cells; assay: Inhibition of NMDA-induced neurotoxicity (LDH release); assay type: cell-based, SD rat; details: for inhibition at 9 µg/mL / inhibition at 30 µg/mL: Rattus norvegicus, 100 μM NMDA; for inhibition at 9 µg/mL: 9 μg/Ml; for inhibition at 30 µg/mL: 30 μg/Ml
Procedure: The hippocampus and cortex were extracted from the cerebral tissue of 17-day old fetus of a pregnant SD rat using a microscope. The extracted hippocampus and cortex were each separated into discrete single cells using a pipette, and the cells obtained therefrom by centrifuging were inoculated into a 96-well plate coated with poly-L-lysine. […] After 72 hours incubation, the medium was replaced with the same medium but lacking glutamate, and the cells were further incubated. […] The cultured cells prepared in Reference Example 6 were treated with 100 μM NMDA (Sigma) for 2 hours to induce cerebral cell damage, with or without the presence of a fixed amount of a test sample. After 24 hours, the amount of LDH released into the culture solution was measured using an LDH measuring kit (Boehringer Mannheim).

[6] = tested on: rat model of transient focal cerebral ischemic damage; assay: Transient focal cerebral ischemia (middle cerebral artery occlusion and reperfusion), TTC infarction volume and swelling; assay type: in vivo, Sprague-Dawley rat; details: one day after occlusion; for Corrected total infarction volume: corrected for swelling; for Corrected total infarction volume / Swelling ratio: rat MCAO, 10 mg/kg intraperitoneally; for Infarction volume, cerebral cortex / Infarction volume, corpus striatum / Infarction volume, total: rat MCAO 120 min and reperfusion, 10 mg/kg intraperitoneally about 30 min after ischemia
[7] = tested on: rat model of transient focal cerebral ischemic damage; assay: Neurological score after middle cerebral artery occlusion; details: for Neurological score: 10 point means normal, average ± standard error
[8] = tested on: cultured rat cerebral hippocampus cells and cortex cells; assay: Inhibition of growth factor withdrawal-induced neurotoxicity (LDH release); assay type: cell-based, SD rat
Procedure: The hippocampus and cortex were extracted from the cerebral tissue of 17-day old fetus of a pregnant SD rat using a microscope. The extracted hippocampus and cortex were each separated into discrete single cells using a pipette, and the cells obtained therefrom by centrifuging were inoculated into a 96-well plate coated with poly-L-lysine. […] After 72 hours incubation, the medium was replaced with the same medium but lacking glutamate, and the cells were further incubated. […] The cultured cells prepared in Reference Example 6 were cultured in […] containing 2% B27 supplementary nutrient, and then, the culture solution was replaced with the same […] but lacking B27 supplementary nutrient to induce cell death caused by undernutrition. After 24 hours, the amount of LDH released by cell necrosis was measured using an LDH measuring kit (Boehringer Mannheim) to quantify the extent of cell death.

[9] = isolated compounds, rat cerebrocortical neurons, LDH
[10] = 30 min after occlusion of middle cerebral artery
[11] = 24 hour after occlusion of middle cerebral artery, 10 mg/kg intraperitoneally

SMILES	IC50 [1] [µg/mL]	IC50 [2, 9] [µg/mL]	DPPH radical scavenging activity (IC50) [3] [µg/mL]	Superoxide anion radical scavenging activity (IC50) [4] [µg/mL]	Inhibition of xanthine/xanthine oxidase-induced neurotoxicity (in words) [1]	Inhibition of hydrogen peroxide-induced neurotoxicity (in words) [2]	Inhibition of NMDA-induced neurotoxicity (in words) [5]	inhibition at 9 µg/mL [5] [%]	inhibition at 30 µg/mL [5] [%]	Corrected total infarction volume [6]	Infarction volume, cerebral cortex [6]	Infarction volume, corpus striatum [6] [mm^3]	Infarction volume, total [6]	Swelling ratio [6] [%]	Neurological score [7, 10]	Neurological score [7, 11]	DPPH radical scavenging activity (in words) [3]	Superoxide anion radical scavenging activity (in words) [4]	also measured
O=C1c2c(O)cc(O)cc2O[C@H](c2ccc(O)cc2)[C@H]1O [Dihydrokaempferol, dihydrokaempferol]	> 300	> 300	>50	>50	–	–	–	–	–	–	–	–	–	–	–	–	–	–	–
O=C1c2c(O)cc(O)cc2O[C@H](c2ccc(O)c(O)c2)[C@H]1O [Dihydroquercetin, dihydroquercetin]	16.6 (≈ 54.6 µM)	7.8 (≈ 25.6 µM)	4.49	2.48	strongly inhibit	strongly inhibit	inhibit	33	47	130.7 ± 13.1 mm^3	169.4 ± 12.7 mm^3	30.1 ± 4.3	199.5 ± 16.5 mm^3	11.9 ± 0.5	2.33 ± 0.16	3.00 ± 0.33	potent	potent	–
COc1c(-c2ccc(O)cc2)oc2cc(O)cc(O)c2c1=O [Kaempferol 3-methyl ether, kaempferol 3-methyl ether]	–	–	>50	>50	–	–	–	–	–	–	–	–	–	–	–	–	–	–	Inhibition of hydrogen peroxide-induced neurotoxicity (IC50) [2, 9]: >300 µg/mL
O=c1c(O)c(-c2ccc(O)cc2)oc2cc(O)cc(O)c12 [Kaempferol, kaempferol]	24.9 (≈ 87 µM)	29.7 (≈ 104 µM)	>50	>50	strongly inhibit	strongly inhibit	–	–	–	–	–	–	–	–	–	–	–	–	–
COc1c(-c2ccc(O)c(O)c2)oc2cc(O)cc(O)c2c1=O [Quercetin 3-methyl ether, quercetin 3-methyl ether]	0.65 (≈ 2.06 µM)	0.6 (≈ 1.9 µM)	3.76	4.77	strongly inhibit; also recorded: highest inhibitory activity	strongly inhibit; also recorded: highest inhibitory activity	inhibit	21	54	81.6 ± 17.8* mm^3	81.2 ± 20.8* mm^3	28.9 ± 3.1	110.1 ± 22.9* mm^3	5.8 ± 0.7	2.36 ± 0.15	4.81 ± 0.44	potent	potent	Inhibition of growth factor withdrawal-induced neurotoxicity (in words) [8]: inhibited; inhibition at 9 µg/mL ([8]; Rattus norvegicus, 9 μg/Ml): 31%; inhibition at 30 µg/mL ([8]; Rattus norvegicus, 30 μg/Ml): 86%; Neurological score compared with the control (in words) [7]: significantly higher
O=c1c(O)c(-c2ccc(O)c(O)c2)oc2cc(O)cc(O)c12 [Quercetin, quercetin]	5.5 (≈ 18.2 µM)	4.1 (≈ 13.6 µM)	2.89	>50	strongly inhibit	strongly inhibit	–	–	–	110.6 ± 15.8 mm^3	130.5 ± 18.6 mm^3	30.1 ± 4.9	161.1 ± 21.4 mm^3	9.1 ± 1.1	2.44 ± 0.24	4.56 ± 0.53	potent	–	–

Source: patent US7563467B2, “Use of an Opuntia ficus-indica extract and compounds isolated therefrom for protecting nerve cells” (Korea Institute of Science and Technology, priority 2001, dated 2009)
